Results from patent US20190211002A1, “NOVEL TRIAZOLE DERIVATIVES” (Bayer CropScience Aktiengesellschaft, priority 2016, published 2019).
Each block holds one molecule with its values, some of them ahead of it.

Assays:
Sphaerotheca fuliginea [1] = experiment: Example H: in vivo preventive test on Sphaerotheca (cucumbers), comparison vs. WO-A 2010/146116; conditions: evaluated 7 days after inoculation
Protocol: To produce a suitable preparation of active compound, 1 part by weight of active compound is mixed with the stated amounts of solvent and emulsifier, and the concentrate is diluted with water to the desired concentration. To test for preventive activity, young plants are sprayed with the preparation of active compound at the stated rate of application. After the spray coating has dried on, the plants are inoculated with an aqueous spore suspension of Sphaerotheca fuliginea. The plants are then placed in a greenhouse at approximately 23° C. and a relative atmospheric humidity of approximately 70%. The test is evaluated 7 days after the inoculation.

[2] = system: Blumeria graminis f sp. hordei; experiment: Example E: in vivo preventive Blumeria test (barley); conditions: 168 h, 500 ppm of active ingredient, preventive spray, evaluated 7 days after inoculation, read-out: efficacy
Protocol: • Solvent: 49 parts by weight of N,N-dimethylacetamide • Emulsifier: 1 part by weight of alkylaryl polyglycol ether To produce a suitable preparation of active compound, 1 part by weight of active compound or active compound combination was mixed with the stated amounts of solvent and emulsifier, and the concentrate was diluted with water to the desired concentration. To test for preventive activity, young plants were sprayed with the preparation of active compound or active compound combination at the stated rate of application. After the spray coating had been dried, the plants were dusted with spores of Blumeria graminis f sp. hordei. The plants were placed in the greenhouse at a temperature of approximately 18° C. and a relative atmospheric humidity of approximately 80% to promote the development of mildew pustules. The test was evaluated 7 days after the inoculation.

Uromyces appendiculatus = experiment: Example D: in vivo preventive test on Uromyces appendiculatus (bean rust); conditions: 264 h, 500 ppm of active ingredient, preventive spray, evaluated 11 days after inoculation, read-out: efficacy
Protocol: (§1) The test is evaluated 11 days after the inoculation.

[3] = LogP by HPLC on reversed phase columns (EEC directive 79/831 Annex V.A8); assay type: physicochemical; conditions: reversed phase HPLC column, method [a]: LC-UV, acidic range, 0.1% formic acid in water and acetonitrile as eluent
Protocol: Measurement of LogP values was performed according to EEC directive 79/831 Annex V.A8 by HPLC (High Performance Liquid Chromatography) on reversed phase columns with the following methods: • ^[a] […] Lambda-max-values were determined using UV-spectra from 200 nm to 400 nm and the peak values of the chromatographic signals.

Puccinia recondita = experiment: Example A: in vivo preventive test on Puccinia recondita (brown rust on wheat); conditions: 264 h, 500 ppm of active ingredient, preventive spray, evaluated 11 days after inoculation, read-out: efficacy
Protocol: as §1

Sphaerotheca fuliginea [4] = experiment: Example F: in vivo preventive test on Sphaerotheca (cucumbers), comparison vs. known phenoxy-phenyl compounds; conditions: rate of application 10 ppm, evaluated 7 days after inoculation
Protocol: • Solvent: 24.5 parts by weight of acetone • 24.5 parts by weight of dimethylacetamide • Emulsifier: 1 part by weight of alkylaryl polyglycol ether
To produce a suitable preparation of active compound, 1 part by weight of active compound is mixed with the above stated amounts of solvent and emulsifier, and the concentrate is diluted with water to the desired concentration.
To test for preventive activity, young plants are sprayed with the preparation of active compound at the stated rate of application. After the spray coating has dried on, the plants are inoculated with an aqueous spore suspension of Sphaerotheca fuliginea. The plants are then placed in a greenhouse at approximately 23° C. and a relative atmospheric humidity of approximately 70%.
The test is evaluated 7 days after the inoculation.

Septoria tritici = experiment: Example G: in vivo 5 days preventive Septoria tritici test (wheat), comparison vs. WO-A 2010/146116; conditions: inoculated 5 days after spraying, evaluated 21 days after inoculation
Protocol: • Solvent: 49 parts by weight of N,N-dimethylacetamide • Emulsifier: 1 part by weight of alkylaryl polyglycol ether To produce a suitable preparation of active compound, 1 part by weight of active compound or active compound combination is mixed with the stated amounts of solvent and emulsifier, and the concentrate is diluted with water to the desired concentration. To test for preventive and long-lasting activity, young plants are sprayed with a preparation of active compound or active compound combination at the stated rate of application. After the spray coating has been dried, the plants are placed in the greenhouse at a temperature of approximately 15° C. and a relative atmospheric humidity of approximately 80%. 5 days later the plants are sprayed with a spore suspension of Septoria tritici. The plants remain for 48 hours in an incubation cabinet at approximately 20° C. and a relative atmospheric humidity of approximately 100% and afterwards for 60 hours at approximately 15° C. in a translucent incubation cabinet at a relative atmospheric humidity of approximately 100%. Then the plants are placed in the greenhouse at a temperature of approximately 15° C. and a relative atmospheric humidity of approximately 80%. The test is evaluated 21 days after the inoculation.

Sphaerotheca fuliginea [5] = experiment: Example C: in vivo preventive test on Sphaerotheca fuliginea (powdery mildew on cucurbits); conditions: Podosphaera fuliginea, 360 h; 500 ppm of active ingredient; gherkin; preventive spray; evaluated 15 days after inoculation; read-out: efficacy
Protocol: The test is evaluated 15 days after the inoculation.

chromatographic logP [3]: 3.25
SMILES: FC(F)(F)c1nc(Oc2ccc(Cl)cc2)ccc1C1(Cn2cncn2)OCCO1 [I.04, 6-(4-chlorophenoxy)-3-[2-(1,2,4-triazol-1-ylmethyl)-1,3-dioxolan-2-yl]-2-(trifluoromethyl)-pyridine]
Efficacy in % (Sphaerotheca fuliginea [1]; rate of application 10 ppm): 73%
Efficacy in % (Sphaerotheca fuliginea [1]; rate of application 100 ppm): 100%
pest or weed control at 500 ppm [2]: 90 to 100%
pest or weed control at 500 ppm (Uromyces appendiculatus): 90 to 100%
pest or weed control at 500 ppm (Puccinia recondita): 90 to 100%
Efficacy in % (Sphaerotheca fuliginea [4]): 73%
Efficacy in % (Septoria tritici; rate of application 100 ppm): 86%
Efficacy in % (Septoria tritici; rate of application 500 ppm): 100%
pest or weed control at 500 ppm (Sphaerotheca fuliginea [5]): 90 to 100%

SMILES: CC(O)(Cn1cncn1)c1ccc(Oc2ccc(Cl)cc2)cc1C(F)(F)F (centres unmarked) [reference compound]
Efficacy in % (Sphaerotheca fuliginea [4]): 30%
